Measured values reported in patent US12122778B2, “Activating pyruvate kinase R” (Novo Nordisk Health Care AG, priority 2018, dated 2024).

Assays:
PKR(G332S) = PKR(G332S) (Homo sapiens, UniProt P30613, G332S); test: Luminescence Biochemical Assay (Kinase Glo Plus), PKR G332S mutant; settings: with FBP; for activation at 1.54 µM: 1.54 μM compound, read-out: AC50 LUM KGP FBP % Fold@1.54 μM mean; for AC50: read-out: AC50 LUM KGP FBP AC50 μM gmean (column A); for Emax: read-out: AC50 LUM KGP FBP MAX % FOLD mean
PKR(R510Q) = PKR(R510Q) (Homo sapiens, UniProt P30613, R510Q); test: Luminescence Biochemical Assay (Kinase Glo Plus), PKR R510Q mutant; settings: without FBP; for activation at 1.54 µM: 1.54 μM compound, read-out: AC50 LUM KGP woFBP % Fold@1.54 μM mean; for AC50: read-out: AC50 LUM KGP woFBP AC50 μM gmean; for Emax: read-out: AC50 LUM KGP woFBP MAX % FOLD mean
PKR(wt) = PKR(wt) (Homo sapiens, UniProt P30613); test: Luminescence Biochemical Assay (Kinase Glo Plus), wild type PKR; settings: without FBP; for activation at 1.54 µM: 1.54 μM compound, read-out: AC50 LUM KGP woFBP % Fold@1.54 μM mean; for AC50: read-out: AC50 LUM KGP woFBP AC50 μM gmean; for Emax: read-out: AC50 LUM KGP woFBP MAX % FOLD mean
Chain of PKR(wt) (P30613 whole entry): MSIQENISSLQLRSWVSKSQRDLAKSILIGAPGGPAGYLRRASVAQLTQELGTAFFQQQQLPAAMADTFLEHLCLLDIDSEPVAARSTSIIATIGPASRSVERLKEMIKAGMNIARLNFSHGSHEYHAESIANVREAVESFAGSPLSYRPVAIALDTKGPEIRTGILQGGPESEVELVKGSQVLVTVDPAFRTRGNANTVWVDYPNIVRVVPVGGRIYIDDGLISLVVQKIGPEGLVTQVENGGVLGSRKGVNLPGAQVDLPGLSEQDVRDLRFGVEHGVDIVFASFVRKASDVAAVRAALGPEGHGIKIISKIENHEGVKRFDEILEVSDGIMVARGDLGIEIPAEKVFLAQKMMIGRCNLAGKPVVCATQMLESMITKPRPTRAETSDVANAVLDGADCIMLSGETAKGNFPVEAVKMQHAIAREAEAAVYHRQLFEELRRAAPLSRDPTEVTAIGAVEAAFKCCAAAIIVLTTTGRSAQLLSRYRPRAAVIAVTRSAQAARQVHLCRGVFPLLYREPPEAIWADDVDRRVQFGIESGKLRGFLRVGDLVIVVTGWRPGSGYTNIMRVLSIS

Chain of PKR(G332S) (P30613 whole entry G332S): as the sequence (P30613 whole entry) above, with G332S counted along it
Chain of PKR(R510Q) (P30613 whole entry R510Q): as the sequence (P30613 whole entry) above, with R510Q counted along it

activation at 1.54 µM (PKR(G332S)) [%]	AC50 (PKR(G332S)) [µM]	Emax (PKR(G332S)) [%]	activation at 1.54 µM (PKR(R510Q)) [%]	AC50 (PKR(R510Q)) [µM]	Emax (PKR(R510Q)) [%]	activation at 1.54 µM (PKR(wt)) [%]	AC50 (PKR(wt)) [µM]	Emax (PKR(wt)) [%]	Structure (SMILES)
75 to 250	1 to 40	75 to 250	75 to 250	1 to 40	75 to 250	75 to 250	0.1 to 1	75 to 250	CN1CCOc2ccc(S(=O)(=O)N3CC4=C(CN(C(=O)[C@H]5CCCO5)C4)C3)cc21 [Example 18-2, 4-Methyl-6-({5-[(2R)-oxolane-2-carbonyl]-1H,2H,3H,4H,5H,6H-pyrrolo[3,4-c]pyrrol-2-yl}sulfonyl)-3,4-dihydro-2H-1,4-benzoxazine]
75 to 250	0.1 to 1	75 to 250	75 to 250	1 to 40	250 to 500	75 to 250	0.1 to 1	75 to 250	CC(C)Oc1ccc(S(=O)(=O)N2CC3=C(CN(C(=O)[C@H](O)c4ccccc4)C3)C2)cc1 [Example 18-12, (2R)-2-hydroxy-2-phenyl-1-{5-[4-(propan-2-yloxy)benzenesulfonyl]-1H,2H,3H,4H,5H,6H-pyrrolo[3,4-c]pyrrol-2-yl}ethan-1-one]
75 to 250	≤ 0.1	75 to 250	250 to 50000	≤ 0.1	250 to 500	250 to 50000	≤ 0.1	250 to 500	O=C([C@H](O)c1ccccc1)N1CC2=C(C1)CN(S(=O)(=O)c1ccc(OC(F)F)cc1)C2 [Example 18-13, (2R)-1-{5-[4-(difluoromethoxy)benzenesulfonyl]-1H,2H,3H,4H,5H,6H-pyrrolo[3,4-c]pyrrol-2-yl}-2-hydroxy-2-phenylethan-1-one]
75 to 250	≤ 0.1	75 to 250	250 to 50000	≤ 0.1	250 to 500	75 to 250	≤ 0.1	75 to 250	O=C([C@H](O)c1ccccc1)N1CC2=C(C1)CN(S(=O)(=O)c1cccc(OC(F)F)c1)C2 [Example 18-15, (2R)-1-{5-[3-(difluoromethoxy)benzene-sulfonyl]-1H,2H,3H,4H,5H,6H-pyrrolo[3,4-c]pyrrol-2-yl}-2-hydroxy-2-phenylethan-1-one]
75 to 250	≤ 0.1	75 to 250	250 to 50000	0.1 to 1	250 to 500	250 to 50000	0.1 to 1	250 to 500	O=C(Cn1cnnn1)N1CC2=C(C1)CN(S(=O)(=O)c1ccc(OC(F)F)cc1)C2 [Example 18-19, 1-(5-((4-(difluoromethoxy)phenyl)sulfonyl)-3,4,5,6-tetrahydropyrrolo[3,4-c]pyrrol-2(1H)-yl)-2-(1H-tetrazol-1-yl)ethan-1-one]
75 to 250	1 to 40	75 to 250	75 to 250	1 to 40	250 to 500	250 to 50000	0.1 to 1	250 to 500	Cc1nc(CC(=O)N2CC3=C(C2)CN(S(=O)(=O)c2ccc(OC(F)F)cc2)C3)cs1 [Example 18-20, 1-{5-[4-(Difluoromethoxy)benzene-sulfonyl]-1H,2H,3H,4H,5H,6H-pyrrolo[3,4-c]pyrrol-2-yl}-2-(2-methyl-1,3-thiazol-4-yl)ethan-1-one]
75 to 250	0.1 to 1	75 to 250	75 to 250	1 to 40	250 to 500	75 to 250	1 to 40	250 to 500	O=C(Cn1cccn1)N1CC2=C(C1)CN(S(=O)(=O)c1ccc(OC(F)F)cc1)C2 [Example 18-21, 1-{5-[4-(Difluoromethoxy)benzenesulfonyl]-1H,2H,3H,4H,5H,6H-pyrrolo[3,4-c]pyrrol-2-yl}-2-(1H-pyrazol-1-yl)ethan-1-one]
75 to 250	≤ 0.1	75 to 250	250 to 50000	0.1 to 1	250 to 500	75 to 250	0.1 to 1	250 to 500	O=C(C(O)c1cccc(F)c1)N1CC2=C(C1)CN(S(=O)(=O)c1ccc(OC(F)F)cc1)C2 (stereo not drawn) [Example 18-22, 1-{5-[4-(Difluoromethoxy)benzenesulfonyl]-1H,2H,3H,4H,5H,6H-pyrrolo[3,4-c]pyrrol-2-yl}-2-(3-fluorophenyl)-2-hydroxyethan-1-one]
75 to 250	0.1 to 1	75 to 250	250 to 50000	1 to 40	250 to 500	75 to 250	0.1 to 1	250 to 500	O=C(C(O)c1ccc(F)c(F)c1)N1CC2=C(C1)CN(S(=O)(=O)c1ccc(OC(F)F)cc1)C2 (stereo not drawn) [Example 18-23, 1-{5-[4-(Difluoromethoxy)benzenesulfonyl]-1H,2H,3H,4H,5H,6H-pyrrolo[3,4-c]pyrrol-2-yl}-2-(3,4-difluorophenyl)-2-hydroxyethan-1-one]
75 to 250	≤ 0.1	75 to 250	250 to 50000	≤ 0.1	250 to 500	250 to 50000	0.1 to 1	250 to 500	O=C(C(F)c1ccccc1)N1CC2=C(C1)CN(S(=O)(=O)c1ccc(OC(F)F)cc1)C2 (stereo not drawn) [Example 18-24, 1-{5-[4-(Difluoromethoxy)benzenesulfonyl]-1H,2H,3H,4H,5H,6H-pyrrolo[3,4-c]pyrrol-2-yl}-2-fluoro-2-phenylethan-1-one]
75 to 250	≤ 0.1	75 to 250	250 to 50000	≤ 0.1	250 to 500	250 to 50000	≤ 0.1	250 to 500	O=C(N1CC2=C(C1)CN(S(=O)(=O)c1ccc(OC(F)F)cc1)C2)C(F)(F)c1ccccc1 [Example 18-25, 1-(5-((4-(Difluoromethoxy)phenyl)sulfonyl)-3,4,5,6-tetrahydropyrrolo[3,4-c]pyrrol-2(1H)-yl)-2,2-difluoro-2-phenylethan-1-one]
75 to 250	≤ 0.1	75 to 250	250 to 50000	0.1 to 1	250 to 500	250 to 50000	0.1 to 1	250 to 500	O=C(Cc1cccnc1)N1CC2=C(C1)CN(S(=O)(=O)c1ccc(OC(F)F)cc1)C2 [Example 18-26, 1-{5-[4-(Difluoromethoxy)benzenesulfonyl]-1H,2H,3H,4H,5H,6H-pyrrolo[3,4-c]pyrrol-2-yl}-2-(pyridin-3-yl)ethan-1-one]
75 to 250	1 to 40	75 to 250	75 to 250	1 to 40	75 to 250	75 to 250	1 to 40	75 to 250	O=C(Cc1ccc[nH]1)N1CC2=C(C1)CN(S(=O)(=O)c1ccc(OC(F)F)cc1)C2 [Example 18-27, 1-{5-[4-(Difluoromethoxy)benzenesulfonyl]-1H,2H,3H,4H,5H,6H-pyrrolo[3,4-c]pyrrol-2-yl}-2-(1H-pyrrol-2-yl)ethan-1-one]
75 to 250	0.1 to 1	75 to 250	250 to 50000	1 to 40	250 to 500	250 to 50000	1 to 40	250 to 500	O=C(Cc1ncccn1)N1CC2=C(C1)CN(S(=O)(=O)c1ccc(OC(F)F)cc1)C2 [Example 18-28, 1-{5-[4-(Difluoromethoxy)benzenesulfonyl]-1H,2H,3H,4H,5H,6H-pyrrolo[3,4-c]pyrrol-2-yl}-2-(pyrimidin-2-yl)ethan-1-one]
75 to 250	≤ 0.1	75 to 250	75 to 250	1 to 40	250 to 500	75 to 250	1 to 40	250 to 500	O=C(Cc1cnccn1)N1CC2=C(C1)CN(S(=O)(=O)c1ccc(OC(F)F)cc1)C2 [Example 18-29, 1-{5-[4-(Difluoromethoxy)benzenesulfonyl]-1H,2H,3H,4H,5H,6H-pyrrolo[3,4-c]pyrrol-2-yl}-2-(pyrazin-2-yl)ethan-1-one]
75 to 250	≤ 0.1	75 to 250	250 to 50000	0.1 to 1	250 to 500	250 to 50000	0.1 to 1	250 to 500	Cc1ccc(CC(=O)N2CC3=C(C2)CN(S(=O)(=O)c2ccc(OC(F)F)cc2)C3)cn1 [Example 18-30, 1-{5-[4-(Difluoromethoxy)benzenesulfonyl]-1H,2H,3H,4H,5H,6H-pyrrolo[3,4-c]pyrrol-2-yl}-2-(6-methylpyridin-3-yl)ethan-1-one]
75 to 250	≤ 0.1	75 to 250	250 to 50000	≤ 0.1	250 to 500	250 to 50000	≤ 0.1	250 to 500	O=C([C@H](O)c1ccc(F)cc1)N1CC2=C(C1)CN(S(=O)(=O)c1ccc(OC(F)F)cc1)C2 [Example 18-31, (2R)-1-{5-[4-(difluoromethoxy)benzenesulfonyl]-1H,2H,3H,4H,5H,6H-pyrrolo[3,4-c]pyrrol-2-yl}-2-(4-fluorophenyl)-2-hydroxyethan-1-one]
